Experiments:
Experiment in all cases: KinomeScan
Format in all cases: binding
Conditions in all cases: 1 μM
AAK1 = biological target: T1, AAK1 (Homo sapiens, UniProt Q2M2I8)
T1 construct: purchased DiscoverX (KINOMEscan)

[1] = biological target: T2, ABL1(E255K)-phosphorylated (Homo sapiens, UniProt P00519, E255K)
T2 construct: purchased DiscoverX (KINOMEscan)

[2] = biological target: T3, ABL1(F317I)-nonphosphorylated (Homo sapiens, UniProt P00519, F317I)
T3 construct: purchased DiscoverX (KINOMEscan)

BMX = biological target: T4, BMX (Homo sapiens, UniProt P51813)
T4 construct: purchased DiscoverX (KINOMEscan)

BRSK1 = biological target: T5, BRSK1 (Homo sapiens, UniProt Q8TDC3)
T5 construct: purchased DiscoverX (KINOMEscan)

CAMK1D = biological target: T6, CAMK1D (Homo sapiens, UniProt Q8IU85)
T6 construct: purchased DiscoverX (KINOMEscan)

CASK = biological target: T7, CASK (Homo sapiens, UniProt O14936)
T7 construct: purchased DiscoverX (KINOMEscan)

CLK2 = biological target: T8, CLK2 (Homo sapiens, UniProt P49760)
T8 construct: purchased DiscoverX (KINOMEscan)

CLK4 = biological target: T9, CLK4 (Homo sapiens, UniProt Q9HAZ1)
T9 construct: purchased DiscoverX (KINOMEscan)

CSF1R = biological target: T10, CSF1R (Homo sapiens, UniProt P07333)
T10 construct: purchased DiscoverX (KINOMEscan)

CSNK1E = biological target: T11, CSNK1E (Homo sapiens, UniProt P49674)
T11 construct: purchased DiscoverX (KINOMEscan)

CSNK1G3 = biological target: T12, CSNK1G3 (Homo sapiens, UniProt Q9Y6M4)
T12 construct: purchased DiscoverX (KINOMEscan)

CSNK2A1 = biological target: T13, CSNK2A1 (Homo sapiens, UniProt P68400)
T13 construct: purchased DiscoverX (KINOMEscan)

DCAMKL1 = biological target: T14, DCAMKL1 (Homo sapiens, UniProt O15075)
T14 construct: purchased DiscoverX (KINOMEscan)

EPHA5 = biological target: T15, EPHA5 (Homo sapiens, UniProt P54756)
T15 construct: purchased DiscoverX (KINOMEscan)
T15 sequence (P54756 25-1037): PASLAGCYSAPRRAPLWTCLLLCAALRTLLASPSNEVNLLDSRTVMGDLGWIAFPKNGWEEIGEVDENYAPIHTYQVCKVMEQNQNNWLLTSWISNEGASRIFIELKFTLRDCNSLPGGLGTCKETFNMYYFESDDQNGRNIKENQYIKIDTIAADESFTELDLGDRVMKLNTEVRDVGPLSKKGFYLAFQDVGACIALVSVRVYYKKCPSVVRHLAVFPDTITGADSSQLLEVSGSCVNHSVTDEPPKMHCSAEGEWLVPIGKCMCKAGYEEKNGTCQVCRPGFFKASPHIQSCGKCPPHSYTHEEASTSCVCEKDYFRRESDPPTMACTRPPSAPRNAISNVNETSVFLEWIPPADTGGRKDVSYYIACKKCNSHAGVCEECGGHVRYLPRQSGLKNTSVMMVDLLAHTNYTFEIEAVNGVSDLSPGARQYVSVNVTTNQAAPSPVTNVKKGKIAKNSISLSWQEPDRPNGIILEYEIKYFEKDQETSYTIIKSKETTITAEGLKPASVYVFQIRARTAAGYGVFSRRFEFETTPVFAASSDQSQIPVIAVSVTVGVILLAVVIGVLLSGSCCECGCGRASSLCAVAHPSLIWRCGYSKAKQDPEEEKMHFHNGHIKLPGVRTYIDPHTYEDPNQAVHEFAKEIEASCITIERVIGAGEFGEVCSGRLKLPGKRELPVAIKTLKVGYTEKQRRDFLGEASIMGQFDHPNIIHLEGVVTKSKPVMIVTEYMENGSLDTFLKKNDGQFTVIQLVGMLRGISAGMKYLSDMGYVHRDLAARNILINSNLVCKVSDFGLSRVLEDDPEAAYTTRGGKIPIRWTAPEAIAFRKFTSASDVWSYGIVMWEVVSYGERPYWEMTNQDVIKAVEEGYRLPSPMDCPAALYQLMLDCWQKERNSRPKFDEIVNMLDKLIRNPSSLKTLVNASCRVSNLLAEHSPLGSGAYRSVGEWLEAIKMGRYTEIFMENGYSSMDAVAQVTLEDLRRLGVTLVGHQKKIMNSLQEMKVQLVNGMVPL

EPHB6 = biological target: T16, EPHB6 (Homo sapiens, UniProt O15197)
T16 construct: purchased DiscoverX (KINOMEscan)

ERBB3 = biological target: T17, ERBB3 (Homo sapiens, UniProt P21860)
T17 construct: purchased DiscoverX (KINOMEscan)

FLT1 = biological target: T18, FLT1 (Homo sapiens, UniProt P17948)
T18 construct: purchased DiscoverX (KINOMEscan)

GRK4 = biological target: T19, GRK4 (Homo sapiens, UniProt P32298)
T19 construct: purchased DiscoverX (KINOMEscan)

HIPK2 = biological target: T20, HIPK2 (Homo sapiens, UniProt Q9H2X6)
T20 construct: purchased DiscoverX (KINOMEscan)

KIT(D816V) = biological target: T21, KIT(D816V) (Homo sapiens, UniProt P10721, D816V)
T21 construct: purchased DiscoverX (KINOMEscan)
T21 sequence (P10721 26-976 D816V): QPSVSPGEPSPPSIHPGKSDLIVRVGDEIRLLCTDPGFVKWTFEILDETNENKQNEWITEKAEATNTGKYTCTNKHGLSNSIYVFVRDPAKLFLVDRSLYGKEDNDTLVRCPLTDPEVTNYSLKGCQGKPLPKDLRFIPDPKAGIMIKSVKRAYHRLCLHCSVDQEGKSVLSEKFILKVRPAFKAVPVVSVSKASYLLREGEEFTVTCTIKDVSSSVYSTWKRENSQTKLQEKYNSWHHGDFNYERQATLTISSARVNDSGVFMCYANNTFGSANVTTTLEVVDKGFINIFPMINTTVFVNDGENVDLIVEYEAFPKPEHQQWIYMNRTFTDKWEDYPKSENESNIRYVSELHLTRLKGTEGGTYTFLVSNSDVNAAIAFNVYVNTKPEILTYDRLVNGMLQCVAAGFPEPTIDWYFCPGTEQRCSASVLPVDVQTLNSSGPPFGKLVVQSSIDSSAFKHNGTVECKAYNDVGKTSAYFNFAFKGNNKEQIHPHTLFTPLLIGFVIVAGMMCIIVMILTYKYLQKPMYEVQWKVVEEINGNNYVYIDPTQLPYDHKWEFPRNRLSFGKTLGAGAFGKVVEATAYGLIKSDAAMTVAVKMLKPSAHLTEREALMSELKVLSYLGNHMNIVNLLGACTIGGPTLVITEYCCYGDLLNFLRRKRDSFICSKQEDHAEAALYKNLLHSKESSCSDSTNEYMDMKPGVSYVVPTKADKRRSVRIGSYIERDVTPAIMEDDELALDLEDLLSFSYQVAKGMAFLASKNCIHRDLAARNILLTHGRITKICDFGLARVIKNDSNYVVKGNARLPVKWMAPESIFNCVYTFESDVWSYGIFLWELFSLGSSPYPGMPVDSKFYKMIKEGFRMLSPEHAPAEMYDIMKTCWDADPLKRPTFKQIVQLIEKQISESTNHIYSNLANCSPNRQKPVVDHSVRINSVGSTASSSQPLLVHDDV

KIT(V559D) = biological target: T22, KIT(V559D) (Homo sapiens, UniProt P10721, V559D)
T22 construct: purchased DiscoverX (KINOMEscan)
T22 sequence (P10721 26-976 V559D): as the sequence (P10721 26-976 D816V) above, with V534D, V791D counted along it

LATS1 = biological target: T23, LATS1 (Homo sapiens, UniProt O95835)
T23 construct: purchased DiscoverX (KINOMEscan)

LATS2 = biological target: T24, LATS2 (Homo sapiens, UniProt Q9NRM7)
T24 construct: purchased DiscoverX (KINOMEscan)

MARK4 = biological target: T25, MARK4 (Homo sapiens, UniProt Q96L34)
T25 construct: purchased DiscoverX (KINOMEscan)

MEK1 = biological target: T26, MEK1 (Homo sapiens, UniProt Q02750)
T26 construct: purchased DiscoverX (KINOMEscan)

MYLK = biological target: T27, MYLK (Homo sapiens, UniProt Q15746)
T27 construct: purchased DiscoverX (KINOMEscan)

OSR1 = biological target: T28, OSR1 (Homo sapiens, UniProt O95747)
T28 construct: purchased DiscoverX (KINOMEscan)

SIK2 = biological target: T29, SIK2 (Homo sapiens, UniProt Q9H0K1)
T29 construct: purchased DiscoverX (KINOMEscan)

STK36 = biological target: T30, STK36 (Homo sapiens, UniProt Q9NRP7)
T30 construct: purchased DiscoverX (KINOMEscan)

STK39 = biological target: T31, STK39 (Homo sapiens, UniProt Q9UEW8)
T31 construct: purchased DiscoverX (KINOMEscan)

SYK = biological target: T32, SYK (Homo sapiens, UniProt P43405)
T32 construct: purchased DiscoverX (KINOMEscan)

TAK1 = biological target: T33, TAK1 (Homo sapiens, UniProt O43318)
T33 construct: purchased DiscoverX (KINOMEscan)

TEC = biological target: T34, TEC (Homo sapiens, UniProt P42680)
T34 construct: purchased DiscoverX (KINOMEscan)

TIE2 = biological target: T35, TIE2 (Homo sapiens, UniProt Q02763)
T35 construct: purchased DiscoverX (KINOMEscan)
T35 sequence (Q02763 23-1124): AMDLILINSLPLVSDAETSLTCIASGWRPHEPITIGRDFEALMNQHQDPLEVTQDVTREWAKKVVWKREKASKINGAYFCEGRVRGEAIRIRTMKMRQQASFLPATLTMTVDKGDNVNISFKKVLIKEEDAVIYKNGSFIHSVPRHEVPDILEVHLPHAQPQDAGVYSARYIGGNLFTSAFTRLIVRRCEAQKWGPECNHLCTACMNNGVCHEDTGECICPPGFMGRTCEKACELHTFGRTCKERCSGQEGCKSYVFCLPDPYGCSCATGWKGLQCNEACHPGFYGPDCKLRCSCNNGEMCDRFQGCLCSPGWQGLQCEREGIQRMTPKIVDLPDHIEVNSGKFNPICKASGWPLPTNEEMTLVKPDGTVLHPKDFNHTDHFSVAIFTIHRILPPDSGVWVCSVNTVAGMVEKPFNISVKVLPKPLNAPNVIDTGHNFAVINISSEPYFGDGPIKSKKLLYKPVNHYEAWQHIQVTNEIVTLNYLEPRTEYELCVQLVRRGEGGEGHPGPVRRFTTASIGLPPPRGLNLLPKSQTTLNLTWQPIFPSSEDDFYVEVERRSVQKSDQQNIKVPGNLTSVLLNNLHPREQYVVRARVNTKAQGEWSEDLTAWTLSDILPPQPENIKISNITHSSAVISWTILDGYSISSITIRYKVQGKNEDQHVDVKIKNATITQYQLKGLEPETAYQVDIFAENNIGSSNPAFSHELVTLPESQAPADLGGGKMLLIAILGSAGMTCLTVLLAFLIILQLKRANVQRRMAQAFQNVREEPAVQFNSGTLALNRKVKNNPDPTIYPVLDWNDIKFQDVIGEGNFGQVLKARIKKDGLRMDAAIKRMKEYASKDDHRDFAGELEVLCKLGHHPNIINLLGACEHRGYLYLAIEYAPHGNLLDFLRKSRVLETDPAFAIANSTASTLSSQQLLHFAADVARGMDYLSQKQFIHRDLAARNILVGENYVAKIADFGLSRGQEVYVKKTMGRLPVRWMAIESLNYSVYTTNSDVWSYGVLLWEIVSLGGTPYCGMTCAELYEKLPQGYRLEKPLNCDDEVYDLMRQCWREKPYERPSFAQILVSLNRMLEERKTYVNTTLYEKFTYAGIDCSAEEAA

TRKA = biological target: T36, TRKA (Homo sapiens, UniProt P04629)
T36 construct: purchased DiscoverX (KINOMEscan)
T36 sequence (P04629 33-796): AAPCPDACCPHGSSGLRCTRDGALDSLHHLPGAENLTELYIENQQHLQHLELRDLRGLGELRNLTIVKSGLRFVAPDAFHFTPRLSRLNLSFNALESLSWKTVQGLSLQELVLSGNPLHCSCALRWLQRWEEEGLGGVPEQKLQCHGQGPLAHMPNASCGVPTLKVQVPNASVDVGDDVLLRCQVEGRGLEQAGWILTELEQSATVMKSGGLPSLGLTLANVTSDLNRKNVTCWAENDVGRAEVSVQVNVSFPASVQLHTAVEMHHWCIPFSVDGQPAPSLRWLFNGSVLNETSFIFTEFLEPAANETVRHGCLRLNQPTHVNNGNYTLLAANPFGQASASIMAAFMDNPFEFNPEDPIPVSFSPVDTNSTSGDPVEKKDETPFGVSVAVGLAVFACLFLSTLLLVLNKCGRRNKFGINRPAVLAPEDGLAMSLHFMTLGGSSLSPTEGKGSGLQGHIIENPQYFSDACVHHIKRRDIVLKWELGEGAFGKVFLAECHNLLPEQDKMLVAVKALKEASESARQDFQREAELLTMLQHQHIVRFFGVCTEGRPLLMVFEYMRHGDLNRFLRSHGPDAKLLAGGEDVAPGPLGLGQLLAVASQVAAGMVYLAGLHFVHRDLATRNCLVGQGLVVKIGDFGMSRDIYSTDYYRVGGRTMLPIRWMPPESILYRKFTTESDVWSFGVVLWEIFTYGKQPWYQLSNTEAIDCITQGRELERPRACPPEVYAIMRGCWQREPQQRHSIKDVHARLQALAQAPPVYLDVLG

WEE2 = biological target: T37, WEE2 (Homo sapiens, UniProt P0C1S8)
T37 construct: purchased DiscoverX (KINOMEscan)

YSK1 = biological target: T38, YSK1 (Homo sapiens, UniProt O00506)
T38 construct: purchased DiscoverX (KINOMEscan)

T1 sequence (Q2M2I8 whole entry): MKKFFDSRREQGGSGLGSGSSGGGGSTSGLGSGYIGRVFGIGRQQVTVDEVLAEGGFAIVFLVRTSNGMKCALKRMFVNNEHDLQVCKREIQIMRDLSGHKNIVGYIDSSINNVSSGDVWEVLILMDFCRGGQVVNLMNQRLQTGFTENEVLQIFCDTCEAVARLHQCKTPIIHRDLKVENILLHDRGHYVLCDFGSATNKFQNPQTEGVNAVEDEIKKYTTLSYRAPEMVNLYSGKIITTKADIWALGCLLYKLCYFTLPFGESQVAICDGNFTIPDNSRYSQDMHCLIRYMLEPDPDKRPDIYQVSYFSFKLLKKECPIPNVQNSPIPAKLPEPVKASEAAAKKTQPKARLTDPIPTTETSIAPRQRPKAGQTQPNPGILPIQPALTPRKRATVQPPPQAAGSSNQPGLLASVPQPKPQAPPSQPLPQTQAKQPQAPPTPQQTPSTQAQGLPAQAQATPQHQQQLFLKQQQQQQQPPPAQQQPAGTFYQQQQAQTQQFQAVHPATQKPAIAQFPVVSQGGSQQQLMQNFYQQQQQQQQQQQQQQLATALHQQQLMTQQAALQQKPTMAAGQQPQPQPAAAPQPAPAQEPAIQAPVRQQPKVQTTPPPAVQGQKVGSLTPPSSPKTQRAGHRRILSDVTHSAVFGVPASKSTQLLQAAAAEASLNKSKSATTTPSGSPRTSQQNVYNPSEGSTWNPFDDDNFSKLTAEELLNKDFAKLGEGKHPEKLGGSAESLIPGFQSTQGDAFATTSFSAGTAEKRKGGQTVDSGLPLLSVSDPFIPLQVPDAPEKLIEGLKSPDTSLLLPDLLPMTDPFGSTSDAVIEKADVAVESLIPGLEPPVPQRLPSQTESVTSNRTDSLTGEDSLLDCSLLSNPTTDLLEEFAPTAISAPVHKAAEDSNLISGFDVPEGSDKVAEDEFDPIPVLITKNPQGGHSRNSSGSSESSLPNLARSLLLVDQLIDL

What does the source list for `COc1cc(/C=C2\N=C(N)NC2=O)ccc1O` [Polyandrocarpamine A]?
Score (AAK1): 100; Score [1]: 100; Score [2]: 92; Score (BMX): 100; Score (BRSK1): 100; Score (CAMK1D): 100; Score (CASK): 100; Score (CLK2): 45; Score (CLK4): 30; Score (CSF1R): 87; Score (CSNK1E): 87; Score (CSNK1G3): 84; Score (CSNK2A1): 12; Score (DCAMKL1): 98; Score (EPHA5): 100; Score (EPHB6): 97; Score (ERBB3): 100; Score (FLT1): 100; Score (GRK4): 100; Score (HIPK2): 50; Score (KIT(D816V)): 100; Score (KIT(V559D)): 91; Score (LATS1): 100; Score (LATS2): 100; Score (MARK4): 100; Score (MEK1): 100; Score (MYLK): 98; Score (OSR1): 100; Score (SIK2): 94; Score (STK36): 96; Score (STK39): 100; Score (SYK): 100; Score (TAK1): 100; Score (TEC): 98; Score (TIE2): 98; Score (TRKA): 95; Score (WEE2): 100; Score (YSK1): 100

From paper PMC5666424, “Marine-Derived 2-Aminoimidazolone Alkaloids. Leucettamine B-Related Polyandrocarpamines Inhibit Mammalian and Protozoan DYRK & CLK Kinases” (Marine Drugs, 2017)
